In patent publication US9624224B2, “Inhibitors of Bruton's tyrosine kinase” (Pharmacyclics LLC, priority 2013, dated 2017):

Experiments:
Format in all cases: biochemical
Lck = Lck (Homo sapiens, UniProt P06239); assay: Lck kinase inhibition (in vitro kinase assay)
Procedure, shortened: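 TR-FRET kinase assay at [ATP]=Km^ATP, detected with Eu-anti-pTyr antibody and streptavidin-APC after EDTA quench; 665/615 nm ratio read. Ki(app) fitted across compound concentrations, converted to IC50 via IC50={Ki(app)/(1+[ATP]/Km^ATP)}+[E]total/2; [Lck]total=6 nM.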

EGFR = EGFR (Homo sapiens, UniProt P00533); assay: EGFR kinase inhibition (in vitro kinase assay)
BTK = molecular target: T1, BTK (Homo sapiens, UniProt Q06187); assay: Btk in vitro inhibitory activity (TR-FRET, mobility shift or radiometric filter binding kinase assay); details: determined using one of the methods outlined in Example 47a, 47b, and 47c
T1 construct: purified from insect cells as a full-length construct containing a N-terminal 6×-His tag; His6 (N); made in house; host or cells: insect cells (baculovirus, Sf21)
Procedure, shortened: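 Full-length N-His-tagged human Btk from insect cells, 8 nM, preincubated 15 min with inhibitor and 0.2 mg/mL poly-Glu-Tyr (4:1) in pH 7.5 Hepes/MgCl2 buffer, then 1 μM ATP for 120 min at RT; radiometric P81 filter read-out. Alternatives: TR-FRET at [ATP]=Km (0.5 nM Btk, IC50 from Ki(app)) or mobility-shift PSR with 12-point 3× curves, 4-parameter fit.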

Jak3 = molecular target: T2, Jak3 (Homo sapiens, UniProt P52333); assay: Jak3 kinase inhibition (in vitro kinase assay)
T2 sequence (P52333 1-1124): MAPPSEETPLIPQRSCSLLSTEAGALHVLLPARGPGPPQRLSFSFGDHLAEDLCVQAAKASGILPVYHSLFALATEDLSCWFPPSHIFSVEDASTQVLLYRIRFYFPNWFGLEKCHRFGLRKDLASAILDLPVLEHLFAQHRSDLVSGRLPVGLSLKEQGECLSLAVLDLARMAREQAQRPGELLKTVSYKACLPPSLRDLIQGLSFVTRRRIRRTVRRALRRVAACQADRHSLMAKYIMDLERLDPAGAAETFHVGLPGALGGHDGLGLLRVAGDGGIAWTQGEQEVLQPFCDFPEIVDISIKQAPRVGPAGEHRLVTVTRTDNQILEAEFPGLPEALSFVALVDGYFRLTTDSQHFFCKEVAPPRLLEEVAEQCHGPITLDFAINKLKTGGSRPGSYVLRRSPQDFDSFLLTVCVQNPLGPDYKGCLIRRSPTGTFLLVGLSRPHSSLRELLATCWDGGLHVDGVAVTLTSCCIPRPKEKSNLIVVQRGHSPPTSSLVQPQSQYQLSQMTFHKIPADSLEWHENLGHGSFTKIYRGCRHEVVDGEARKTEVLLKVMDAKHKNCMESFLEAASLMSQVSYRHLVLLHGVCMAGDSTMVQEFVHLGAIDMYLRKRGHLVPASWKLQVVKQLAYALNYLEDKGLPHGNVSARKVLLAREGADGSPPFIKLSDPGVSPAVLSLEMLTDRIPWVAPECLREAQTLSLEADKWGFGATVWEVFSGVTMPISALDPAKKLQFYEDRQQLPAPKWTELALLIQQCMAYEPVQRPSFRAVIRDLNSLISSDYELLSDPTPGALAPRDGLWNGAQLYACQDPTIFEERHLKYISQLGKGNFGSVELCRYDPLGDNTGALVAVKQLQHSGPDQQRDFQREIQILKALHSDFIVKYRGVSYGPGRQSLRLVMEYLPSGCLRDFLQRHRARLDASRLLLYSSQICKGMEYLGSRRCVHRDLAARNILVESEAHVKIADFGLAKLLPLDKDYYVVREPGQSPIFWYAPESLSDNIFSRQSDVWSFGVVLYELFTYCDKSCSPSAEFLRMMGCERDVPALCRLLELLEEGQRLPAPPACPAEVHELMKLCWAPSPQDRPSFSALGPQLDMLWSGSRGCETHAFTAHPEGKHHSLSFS

T1 sequence (Q06187 whole entry): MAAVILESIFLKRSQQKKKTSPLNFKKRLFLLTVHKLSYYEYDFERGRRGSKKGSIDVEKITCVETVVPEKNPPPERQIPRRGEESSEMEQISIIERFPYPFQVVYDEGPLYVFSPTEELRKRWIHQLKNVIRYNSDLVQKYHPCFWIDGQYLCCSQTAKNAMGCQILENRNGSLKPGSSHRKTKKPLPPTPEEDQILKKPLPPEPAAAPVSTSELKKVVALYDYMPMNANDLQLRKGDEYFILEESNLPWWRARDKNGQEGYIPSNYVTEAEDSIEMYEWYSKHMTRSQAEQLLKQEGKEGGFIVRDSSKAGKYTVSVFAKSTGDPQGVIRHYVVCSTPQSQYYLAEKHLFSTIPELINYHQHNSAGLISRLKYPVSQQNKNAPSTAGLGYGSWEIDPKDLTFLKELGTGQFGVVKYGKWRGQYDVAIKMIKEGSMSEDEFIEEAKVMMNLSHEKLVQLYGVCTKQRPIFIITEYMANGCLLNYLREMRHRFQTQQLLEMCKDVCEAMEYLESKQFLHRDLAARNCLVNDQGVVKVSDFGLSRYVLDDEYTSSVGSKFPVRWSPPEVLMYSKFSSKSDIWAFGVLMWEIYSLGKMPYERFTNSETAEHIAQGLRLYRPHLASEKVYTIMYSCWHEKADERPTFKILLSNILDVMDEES
Lck, sequence (P06239 whole entry, species assumed): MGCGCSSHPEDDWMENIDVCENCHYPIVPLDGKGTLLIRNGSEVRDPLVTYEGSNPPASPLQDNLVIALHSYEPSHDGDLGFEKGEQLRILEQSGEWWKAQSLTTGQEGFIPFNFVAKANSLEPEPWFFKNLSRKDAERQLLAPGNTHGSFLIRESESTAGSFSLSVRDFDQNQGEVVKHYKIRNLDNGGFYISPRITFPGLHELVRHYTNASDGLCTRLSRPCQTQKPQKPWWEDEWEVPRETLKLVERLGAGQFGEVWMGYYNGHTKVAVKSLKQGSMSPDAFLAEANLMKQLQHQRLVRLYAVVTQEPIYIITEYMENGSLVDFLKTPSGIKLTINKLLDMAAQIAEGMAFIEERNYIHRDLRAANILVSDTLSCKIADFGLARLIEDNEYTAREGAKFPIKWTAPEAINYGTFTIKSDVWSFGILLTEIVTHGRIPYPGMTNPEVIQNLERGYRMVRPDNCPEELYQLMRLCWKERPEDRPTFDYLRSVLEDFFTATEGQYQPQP
EGFR, sequence (P00533 25-1210, species assumed): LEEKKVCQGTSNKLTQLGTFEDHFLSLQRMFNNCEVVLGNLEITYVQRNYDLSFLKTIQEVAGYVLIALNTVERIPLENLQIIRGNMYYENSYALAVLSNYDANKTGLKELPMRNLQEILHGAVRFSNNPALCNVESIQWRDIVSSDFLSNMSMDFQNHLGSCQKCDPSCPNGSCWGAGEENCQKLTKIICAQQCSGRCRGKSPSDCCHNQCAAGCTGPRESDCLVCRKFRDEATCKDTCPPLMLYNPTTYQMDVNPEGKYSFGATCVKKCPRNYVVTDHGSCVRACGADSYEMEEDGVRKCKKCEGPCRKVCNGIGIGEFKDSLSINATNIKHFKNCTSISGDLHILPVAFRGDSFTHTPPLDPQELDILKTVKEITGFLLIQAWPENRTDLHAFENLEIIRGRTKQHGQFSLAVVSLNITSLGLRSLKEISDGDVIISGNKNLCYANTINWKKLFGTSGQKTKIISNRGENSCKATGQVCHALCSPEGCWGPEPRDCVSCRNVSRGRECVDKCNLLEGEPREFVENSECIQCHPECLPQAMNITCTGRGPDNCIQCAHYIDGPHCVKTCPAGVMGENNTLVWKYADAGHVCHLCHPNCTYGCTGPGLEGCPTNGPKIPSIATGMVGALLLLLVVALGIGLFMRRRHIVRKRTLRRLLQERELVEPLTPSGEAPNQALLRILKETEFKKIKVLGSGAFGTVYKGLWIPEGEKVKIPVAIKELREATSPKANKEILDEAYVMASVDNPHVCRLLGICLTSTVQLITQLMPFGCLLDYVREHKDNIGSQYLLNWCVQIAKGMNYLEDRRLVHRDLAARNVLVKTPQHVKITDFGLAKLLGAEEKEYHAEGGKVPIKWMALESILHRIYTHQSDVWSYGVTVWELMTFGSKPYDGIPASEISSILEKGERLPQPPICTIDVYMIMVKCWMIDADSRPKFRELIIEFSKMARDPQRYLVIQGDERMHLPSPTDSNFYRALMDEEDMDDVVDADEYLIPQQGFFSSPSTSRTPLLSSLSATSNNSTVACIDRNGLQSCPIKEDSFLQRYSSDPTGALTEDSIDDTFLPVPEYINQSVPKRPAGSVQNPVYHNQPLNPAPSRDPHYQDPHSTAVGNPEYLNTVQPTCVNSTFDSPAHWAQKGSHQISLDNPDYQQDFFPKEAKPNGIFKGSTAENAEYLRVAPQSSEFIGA

Cc1ccnc(NC(=O)c2ccc(-c3nn([C@H]4CC[C@H](NC(=O)/C=C/CN(C)C)CC4)c4ncnc(N)c34)cc2)c1 [Example 28, 4-(4-amino-1-((1,4-trans)-4-((E)-4-(dimethylamino)but-2-enamido)cyclohexyl)-1H-pyrazolo[3,4-d]pyrimidin-3-yl)-N-(4-methylpyridin-2-yl)benzamide]
IC50 (Lck): > 10000 nM
IC50 (EGFR): 100 to 1000 nM
IC50 (BTK): < 100 nM
IC50 (Jak3): > 10000 nM

Cc1ccnc(NC(=O)c2ccc(-c3nn([C@H]4CC[C@H](NC(=O)/C=C/CN(C)C5CC5)CC4)c4ncnc(N)c34)cc2)c1 [Example 29, 4-(4-amino-1-((1,4-trans)-4-((E)-4-(cyclopropyl(methyl)amino)but-2-enamido)cyclohexyl)-1H-pyrazolo[3,4-d]pyrimidin-3-yl)-N-(4-methylpyridin-2-yl)benzamide]
IC50 (Lck): > 10000 nM
IC50 (EGFR): 100 to 1000 nM
IC50 (BTK): < 100 nM
IC50 (Jak3): > 10000 nM
